Consider six molecules from US10457686B2, “[1,2,3]triazolo[4,5-D]pyrimidine derivatives” (Hoffmann-La Roche Inc., priority 2016, dated 2019).

One experiment concerns the target human CB1 (Homo sapiens (Human), UniProt P21554). The experiment can be described thus: Radioligand binding assay, human CNR1 (CB1) receptor, [3H]-CP-55,940. The following applies: membrane preparations of HEK cells expressing human CNR1; 1.5 nM [3H]-CP-55,940. The procedure:
(§1) Radioligand Binding Assay
(§2) The affinity of the compounds of the invention for cannabinoid receptors was determined using recommended amounts of membrane preparations (PerkinElmer) of human embryonic kidney (HEK) cells expressing the human CNR1 or CNR2 receptors in conjunction with 1.5 or 2.6 nM [3H]-CP-55,940 (Perkin Elmer) as radioligand, respectively. Binding was performed in binding buffer (50 mM Tris, 5 mM MgCl2, 2.5 mM EDTA, and 0.5% (wt/vol) fatty acid free BSA, pH 7.4 for CB1 receptor and 50 mM Tris, 5 mM MgCl2, 2.5 mM EGTA, and 0.1% (wt/vol) fatty acid free BSA, pH 7.4 for CB2 receptor) in a total volume of 0.2 mL for 1 h at 30° C. shaking. The reaction was terminated by rapid filtration through microfiltration plates coated with 0.5% polyethylenimine (UniFilter GF/B filter plate; Packard). Bound radioactivity was analyzed for Ki using nonlinear regression analysis (Activity Base, ID Business Solution, Limited), with the Kd values for [^3H]CP55,940 determined from saturation experiments.

For a further experiment, the target named is human CB2 (Homo sapiens (Human), UniProt P34972). Put plainly: Radioligand binding assay, human CNR2 (CB2) receptor, [3H]-CP-55,940. As to conditions: membrane preparations of HEK cells expressing human CNR2; 2.6 nM [3H]-CP-55,940. The procedure:
as §1, §2
The compounds according to formula (I) have an activity in the above assay (Ki) particularly of 0.5 nM to 10 μM, more particularly of 0.5 nM to 3 μM and most particularly of 0.5 nM to 100 nM.

Chain of human CB1 (P21554 whole entry): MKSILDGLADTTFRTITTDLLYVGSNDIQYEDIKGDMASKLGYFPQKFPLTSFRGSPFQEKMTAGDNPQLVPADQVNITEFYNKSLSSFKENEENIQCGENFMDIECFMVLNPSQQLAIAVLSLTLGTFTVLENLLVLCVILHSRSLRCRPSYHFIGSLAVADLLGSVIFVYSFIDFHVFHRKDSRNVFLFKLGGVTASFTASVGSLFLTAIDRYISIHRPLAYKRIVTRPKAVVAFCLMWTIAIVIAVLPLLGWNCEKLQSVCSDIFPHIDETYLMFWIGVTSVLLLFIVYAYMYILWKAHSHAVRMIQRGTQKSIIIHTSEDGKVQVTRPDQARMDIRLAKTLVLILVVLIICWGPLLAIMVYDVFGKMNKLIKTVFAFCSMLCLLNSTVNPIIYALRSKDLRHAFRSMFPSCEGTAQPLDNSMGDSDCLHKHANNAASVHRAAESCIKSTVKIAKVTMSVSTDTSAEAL
Chain of human CB2 (P34972 whole entry): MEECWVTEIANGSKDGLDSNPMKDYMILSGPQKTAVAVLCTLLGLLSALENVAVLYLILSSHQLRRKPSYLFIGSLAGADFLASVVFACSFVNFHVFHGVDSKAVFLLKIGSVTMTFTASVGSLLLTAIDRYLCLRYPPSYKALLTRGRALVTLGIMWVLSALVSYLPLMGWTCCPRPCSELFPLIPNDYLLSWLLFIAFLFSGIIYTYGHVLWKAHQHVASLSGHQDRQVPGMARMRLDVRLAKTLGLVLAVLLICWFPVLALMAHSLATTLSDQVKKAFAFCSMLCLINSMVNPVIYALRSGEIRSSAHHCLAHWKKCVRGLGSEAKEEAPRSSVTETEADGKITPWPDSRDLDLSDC

Consider `C#CCCC1(CCNC(=O)c2nonc2Cn2nc3nc(C(C)(C)C)nc(N4CCC(F)(F)C4)c3n2)N=N1` [Example 2, 4-{[5-tert-Butyl-7-(3,3-difluoropyrrolidin-1-yl)-2H-[1,2,3]triazolo[4,5-d]pyrimidin-2-yl]methyl}-N-{2-[3-(but-3-yn-1-yl)-3H-diaziren-3-yl]ethyl}-1,2,5-oxadiazole-3-carboxamide], for which the Ki is above 10000 nM at human CB1 and 932 nM at human CB2.

In the case of `C#CCCC1(CCNC(=O)c2nonc2Cn2nc3nc(C(C)(C)C)nc(N4CC[C@H](O)C4)c3n2)N=N1` [Example 3, 4-({5-tert-Butyl-7-[(3S)-3-hydroxypyrrolidin-1-yl]-2H-[1,2,3]triazolo[4,5-d]pyrimidin-2-yl}methyl)-N-{2-[3-(but-3-yn-1-yl)-3H-diaziren-3-yl]ethyl}-1,2,5-oxadiazole-3-carboxamide], the inhibition constant Ki is above 10000 nM on human CB1 and 2860 nM at human CB2.

For `C#Cc1cccc(C2(C(F)(F)F)N=N2)c1Cn1nc2nc(C(F)(F)c3ccccc3)nc(N3CCC(F)(F)C3)c2n1` [Example 4, 5-[Difluoro(phenyl)methyl]-7-(3,3-difluoropyrrolidin-1-yl)-2-[[2-ethynyl-6-[3-(trifluoromethyl)diazirin-3-yl]phenyl]methyl]triazolo[4,5-d]pyrimidine], the inhibitory constant (Ki) at human CB1 is above 10000 nM; on human CB2, 1070 nM.

Turning to `C#Cc1cccc(C2(C(F)(F)F)N=N2)c1Cn1nc2nc(C(C)(C)C)nc(N3CCC(F)(F)C3)c2n1` [Example 5, 5-tert-Butyl-7-(3,3-difluoropyrrolidin-1-yl)-2-[[2-ethynyl-6-[3-(trifluoromethyl)diazirin-3-yl]phenyl]methyl]triazolo[4,5-d]pyrimidine], the Ki was 583 nM at human CB1 and 81.4 nM on human CB2.

With `C#Cc1cccc(C2(C(F)(F)F)N=N2)c1Cn1nc2nc(C(C)(C)C)nc(N3CC[C@H](O)C3)c2n1` [Example 6, (3S)-1-[5-tert-Butyl-2-[[2-ethynyl-6-[3-(trifluoromethyl)diazirin-3-yl]phenyl]methyl]triazolo[4,5-d]pyrimidin-7-yl]pyrrolidin-3-ol], the figures for the inhibition constant Ki at human CB1 and at human CB2 were above 10000 nM and 99.2 nM, respectively.

With `C#Cc1cccc(C2(C(F)(F)F)N=N2)c1Cn1nc2nc(C(F)(F)c3ccccc3)nc(N3CC[C@H](O)C3)c2n1` [Example 7, (3S)-1-[5-[Difluoro(phenyl)methyl]-2-[[2-ethynyl-6-[3-(trifluoromethyl)diazirin-3-yl]phenyl]methyl]triazolo[4,5-d]pyrimidin-7-yl]pyrrolidin-3-ol], the Ki at human CB1 stood at 5460 nM; at human CB2, 358 nM.
